In patent US10137072B2, “Methods and compositions for providing broad spectrum photo protection using antioxidants” (L'OREAL, priority 2016, dated 2018):
Like-named read-outs stand apart in the source and are kept apart here.

Test system: human skin keratinocytes and/or fibroblasts
Assay: in vitro ROS probe assay: protection of live skin cells against ROS induced by visible light and infrared radiation
Assay type: cell-based
Set-up: key to Visible light protection % / IR protection %: Strong: “strong” refers to a percent protection greater than 70%; “Medium” refers to a percent protection less than or equal to 70% but greater than or equal to 40%; “Low” refers to a percent protection less than 40%; Negative: The term “negative” is used when there is no protection
Conditions: cells pre-treated 24 hours at 10 μg/ml (0.001%), antioxidant removed before exposure; for inhibition at 10 µg/mL: Homo sapiens, light or radiation study
Excerpt: A sensitive in vitro ROS (Reactive Oxygen Species) probe was used to evaluate the protective effects of antioxidants on live skin cells against visible light and infrared radiation (IR). Based on a blind screening of 26 compounds, 12 compounds were discovered that efficiently (>40%) decrease the ROS induced by visible light and/or IR radiation on human skin keratinocytes and/or fibroblasts. These compounds (or mixtures of these compounds) provide biological protection for skin cells against visible light and infrared radiation.
Human cells were pre-treated with and without antioxidants for 24 hours at a very low concentration (10 μg/ml (0.001%)). After incubation for 24 hours, the cells were rinsed and the medium changed in order to remove all the antioxidants before light exposure. The cells were exposed to visible light (100 J/cm^2) and infrared radiation (200 J/cm^2) using Xenon Light Source 300W Monochromatic Light with Filters Max-303 (Asashi Spectra company). After exposure to the visible light and the IR radiation, a new ROS probe was incubated with the cells for one hour to track the in vitro ROS produced. A comfocal microscope and associated software was used to image the fluorescent signals from individual cells and quantify the fluorescence intensity. By comparing with control samples without a pretreatment of antioxidants, it was possible to quantify the protection effect.
In the table above, “strong” refers to a percent protection greater than 70%, “Medium” refers to a percent protection less than or equal to 70% but greater than or equal to 40%. “Low” refers to a percent protection less than 40%. The term “negative” is used when there is no protection. The protection percentage was defined according to the equation below (wherein the term “AOX” refers to “antioxidant”).
Since the in vitro tests were done on live human skin cells, kerotinocytes and fibroblasts, and the antioxidants in the cell culture media were removed before light exposure, the results directly predict the biological protection effects of the antioxidants on skin against visible light and infrared radiation.

[1] = ROS induced by infrared radiation (200 J/cm^2)
[2] = ROS induced by visible light (100 J/cm^2)
[3] = ROS induced by infrared radiation (200 J/cm^2), read-out: IR protection %
[4] = ROS induced by visible light (100 J/cm^2), read-out: Visible light protection %

Compound | IR protection % [1] | Visible light protection % [2] | inhibition at 10 µg/mL [3] | inhibition at 10 µg/mL [4]
O=C1O[C@H]([C@@H](O)CO)C(O)=C1O [Vit C] | Low (“Low” refers to a percent protection less than 40%) | Low (“Low” refers to a percent protection less than 40%) | – | –
COc1ccc([C@@H]2CC(=O)c3c(O)cc(O)cc3O2)cc1O [Hesperetin, hesperetin] | – | – | < 40% | > 70%
OC[C@H]1O[C@@H](Oc2cc(O)cc(/C=C/c3ccc(O)cc3)c2)[C@H](O)[C@@H](O)[C@@H]1O [Polydatin, polydatin] | – | – | > 70% | > 70%
COC1=C(OC)C(=O)C(C/C=C(\C)CC/C=C(\C)CC/C=C(\C)CC/C=C(\C)CC/C=C(\C)CC/C=C(\C)CC/C=C(\C)CC/C=C(\C)CC/C=C(\C)CCC=C(C)C)=C(C)C1=O [Ubiquinone(coQ10), Ubiquinone] | – | – | > 70% | –
CC1=NCC[C@@H](C(=O)O)N1 [Ronacare Ectoin] | Low (“Low” refers to a percent protection less than 40%) | Negative | – | –
catechin | Medium (“Medium” refers to a percent protection less than or equal to 70% but greater than or equal to 40%) | Strong (“strong” refers to a percent protection greater than 70%) | – | –
O=C(CCc1ccc(O)cc1)c1c(O)cc(O)cc1O [Phloretin] | – | Negative | – | –
C[C@@H]1O[C@@H](O[C@H]2C(=O)c3c(O)cc(O)cc3O[C@@H]2c2ccc(O)c(O)c2)[C@H](O)[C@H](O)[C@H]1O [Astilbin, astilbin] | – | – | 40 to 70% | 40 to 70%
Oc1ccc(C=Cc2cc(O)cc(O)c2)cc1 [Resveratrol] | Negative | – | – | < 40%
NCCC(=O)N[C@@H](Cc1c[nH]cn1)C(=O)O [Carnosin] | Low (“Low” refers to a percent protection less than 40%) | Low (“Low” refers to a percent protection less than 40%) | – | –
C=CC(C)(C)c1cc(/C=C/C(=O)c2ccc(O)cc2)c(OC)cc1O [licochalcone A] | – | Negative | – | –
O=C(O)[C@H]1O[C@@H](Oc2cc3oc(-c4ccccc4)cc(=O)c3c(O)c2O)[C@H](O)[C@@H](O)[C@@H]1O [Baicalin, baicalin] | – | – | 40 to 70% | > 70%
COc1cc(/C=C/C(=O)O)ccc1O [Ferulic Acid, ferulic acid] | – | – | 40 to 70% | 40 to 70%
COc1ccc(CCC(=O)c2c(O)cc(O[C@@H]3O[C@H](CO)[C@@H](O)[C@H](O)[C@H]3O[C@@H]3O[C@@H](C)[C@H](O)[C@@H](O)[C@H]3O)cc2O)cc1O [Neohesperidin DHC] | Strong (“strong” refers to a percent protection greater than 70%) | Negative | – | –
O=C1N[C@H](C(=O)O)CS1 [Pro-cysteine] | – | Negative | < 40% | –
